Like-named read-outs stand apart in the source and are kept apart here.
Columns and labels:
[1] = test system: Z-138 xenografts; assay: Z-138 mantle cell lymphoma xenograft in SCID mice; assay type: in vivo; design: toxicity (side effects, weight loss): dose or concentration left out as unconfirmed
Protocol: The impact of Compound 585 on tumor growth was tested using a Z-138 mantle cell lymphoma cancer xenograft model in SCID mice. Z-138 (ATCC #CRL-3001) mantle cell lymphoma cells were obtained from ATCC. These cells were grown in IMEM medium supplemented with 10% horse serum, 1% penicillin and streptomycin, and 2 mM L-glutamine. Cells were sub-cultured by dilution at a ratio of 1:5 to 1:10. Z-138 cells were harvested by centrifugation and counted using a hemocytometer. Cells were resuspended in PBS at a 2×10^8 cells per mL. Cells were placed on ice and mixed with an equal volume of Matrigel (BD Biosciences CB-40234). This mixture was kept on ice and injected into the left flank of mice in a volume of 0.2 mL, equivalent to 2×10^7 cells per mouse. Forty (40) CB-17 SCID mice were inoculated subcutaneously in the left flank with 2×10^7 Z-138 cells. Treatment was initiated when the tumors reached a mean volume of 125.2 mm^3. Mice were allocated to five (5) groups of eight (8) mice such that mean tumor volume in each group was within the range of 106.5 to 138.8 mm^3. Mice were treated with vehicle, standard of care/positive control drug (cyclophosphamide), or Compound 585. […] Animal weights and conditions were recorded daily, and tumors were measured on Mondays, Wednesdays and Fridays.

[2] = test system: PAK4 signalling in IMR-90 cells; assay: Western blots of PAK4 signalling in normal cells (IMR-90); assay type: cell-based; settings: IMR-90 normal cell line; 72-hour treatment, increasing concentrations; Western blot
Protocol: Normal human dermal fibroblasts (NHDF) and normal lung cells (IMR-90) were treated with Compound 585 for 72 hours, at which time the cells were lysed in RIPA buffer. The lysates were run on SDS-PAGE and Western blots of phospho-PAK4, PAK4, phospho-cofilin, cofilin, phospho-β-catenin, β-catenin, PARP and caspase-3 were performed.

[3] = test system: normal cells; assay: 72-hour MTT cell proliferation assay, summary over the normal cell lines tested; assay type: cell-based; settings: normal cells (n=10): NHDF, 3T3, NHEK, IMR-90, PBMC, ARPE-19, HS738.st, WI-38, MRC-5, RWPE-1
Protocol: The MTT cell proliferation assay was used to study the cytotoxic properties of the compounds. The assay was performed according to the method described by Roche Molecular Biochemicals, with minor modifications. The assay is based on the cleavage of the tetrazolium salt, MTT, in the presence of an electron-coupling reagent. The water-insoluble formazan salt produced must be solubilized in an additional step. Cells grown in a 96-well tissue culture plate were incubated with the MTT solution for approximately 4 hours. After this incubation period, a water-insoluble formazan dye formed. After solubilization, the formazan dye was quantitated using a scanning multi-well spectrophotometer (ELISA reader). […] The cells were seeded at 5,000-10,000 cells in each well of 96-well plate in 100 μL of fresh culture medium and were allowed to attach overnight. The stock solutions of the compounds were diluted in 100 μL cell culture medium to obtain eight concentrations of each test compound, ranging from 1 nM to 30 μM. […] All optical densities were measured at 490 nm using a Vmax Kinetic Microplate Reader (Molecular Devices). In most cases, the assay was performed in duplicate and the results were presented as a mean percent inhibition to the negative control±SE. The following formula was used to calculate the percent of inhibition: Inhibition (%)=(1−(ODo/OD))×100. […]

[4] = test system: HT-29 cells; assay: MTT cell proliferation assay; assay type: cell-based; settings: Homo sapiens, 72-hour MTT
Protocol: The MTT cell proliferation assay was used to study the cytotoxic properties of the compounds. The assay was performed according to the method described by Roche Molecular Biochemicals, with minor modifications. The assay is based on the cleavage of the tetrazolium salt, MTT, in the presence of an electron-coupling reagent. The water-insoluble formazan salt produced must be solubilized in an additional step. Cells grown in a 96-well tissue culture plate were incubated with the MTT solution for approximately 4 hours. After this incubation period, a water-insoluble formazan dye formed. After solubilization, the formazan dye was quantitated using a scanning multi-well spectrophotometer (ELISA reader). […] The cells were seeded at 5,000-10,000 cells in each well of 96-well plate in 100 μL of fresh culture medium and were allowed to attach overnight. The stock solutions of the compounds were diluted in 100 μL cell culture medium to obtain eight concentrations of each test compound, ranging from 1 nM to 30 μM. […] All optical densities were measured at 490 nm using a Vmax Kinetic Microplate Reader (Molecular Devices). In most cases, the assay was performed in duplicate and the results were presented as a mean percent inhibition to the negative control±SE. The following formula was used to calculate the percent of inhibition: Inhibition (%)=(1−(ODo/OD))×100.
Compounds 504, 510, 525 and 585 were further tested against selected solid and hematological cancer cell lines and selected normal cell lines in a 72-hour MTT cell proliferation assay.

[5] = test system: M24 cells; assay: MTT cell proliferation assay; assay type: cell-based; settings: Homo sapiens
[6] = test system: MRC-5 cells; assay: MTT cell proliferation assay; assay type: cell-based; settings: Homo sapiens, MRC5; MRC-5 cell line
[7] = test system: MDA-MB-468 xenografts; assay: MDA-MB-468 (triple negative breast cancer) xenograft in CB-17 SCID mice; assay type: in vivo, mouse; settings: for mean tumor volume of MDA-MB-468 xenografts: CB-17 SCID mice, 15 mg/kg PO once daily Monday through Friday; for toxicity (side effects, weight loss): MDA-MB-468 xenograft model, minimal or no side effects or weight loss up to 200 mg/kg daily dose
Protocol: The oncological impact of Compound 504 and Compound 510 were tested using a MDA-MB-468 (triple negative breast cancer) xenograft model in CB-17 SCID mice. MDA-MB-468 (ATCC #HTB-102) breast adenocarcinoma cells were obtained from ATCC. The cells were grown in high glucose DMEM supplemented with 10% fetal bovine serum, 1% penicillin and streptomycin, and 2 mM L-glutamine. Cells were sub-cultured by dilution at a ratio of 1:4. MDA-MB-468 cells were harvested by trypsinization and counted using a hemocytometer. Cells were resuspended in PBS at a 4×10^8 cells per mL. Cells were placed on ice and mixed with an equal volume of Matrigel (BD Biosciences CB-40234). Thirty-two (32) CB-17 SCID mice were inoculated sub-cutaneously in the left flank with 4×10^7 MDA-MB-468 cells. Treatment was initiated when the tumors reached a mean volume of about 100 mm^3. Mice were allocated to four (4) groups of eight (8) mice such that mean tumor volume was about 100 mm^3 in each group. Mice were treated with vehicle, standard of care/positive control drug (paclitaxel), Compound 504 or Compound 510. Compound 504 (15 mg/kg) and Compound 510 (15 mg/kg) were given orally (PO) once daily on Monday through Friday each week. Animals' weights and condition were recorded daily, and tumors were measured on Mondays, Wednesdays, and Fridays.

[8] = M24 cell line, read-out: MTT Assay IC50, M24
[9] = M24 cells, 72-hour MTT, read-out: M24 MTT IC50

Nc1ccc(/C=C/C(=O)NCc2cc3cc(-c4ccc(C(=O)N5CCC(F)(F)CC5)cn4)cc(C(F)(F)F)c3o2)cn1 [Compound 585, (E)-3-(6-aminopyridin-3-yl)-N-((5-(5-(4,4-difluoropiperidine-1-carbonyl)pyridin-2-yl)-7-(trifluoromethyl)benzofuran-2-yl)methyl)acrylamide]
mean tumor volume of Z-138 xenografts ([1]; SCID mice, 10, 30, or 60 mg/kg PO daily): tumor growth inhibition and even tumor regression
toxicity (side effects, weight loss) ([1]; Z-138 xenograft model, minimal or no side effects or weight loss up to daily dose): without major toxicity
effect on PAK4 signalling (phospho-PAK4, PAK4, phospho-cofilin, cofilin, phospho-β-catenin, β-catenin, PARP, caspase 3) [2]: little to no effect
inhibition of normal cells [3]: did not inhibit

Nc1ccc(/C=C/C(=O)NCc2cc3cc(-c4ccc(C(=O)N5CCOCC5)cc4)cc(C(F)(F)F)c3o2)cn1 [Compound 510, (E)-3-(6-aminopyridin-3-yl)-N-((5-(4-(morpholine-4-carbonyl)phenyl)-7-(trifluoromethyl)benzofuran-2-yl)methyl)acrylamide]
IC50 [4]: 9310 nM
IC50 [5, 8]: 100 to 5000 nM
IC50 [5, 9]: 290 nM
IC50 [6]: < 100 nM
mean tumor volume of MDA-MB-468 xenografts [7]: tumor growth inhibition
toxicity (side effects, weight loss) [7]: without major toxicity

Nc1ccc(/C=C/C(=O)NCc2cc3cc(-c4ccc(S(=O)(=O)N5CCOCC5)cc4)cc(Cl)c3o2)cn1 [Compound 504, (E)-3-(6-Aminopyridin-3-yl)-N-((7-chloro-5-(4-(morpholinosulfonyl)phenyl)benzofuran-2-yl)methyl)acrylamide]
IC50 [4]: 480 nM
IC50 [5, 8]: 100 to 5000 nM
IC50 [5, 9]: 50 nM
IC50 [6]: < 100 nM
mean tumor volume of MDA-MB-468 xenografts [7]: tumor growth inhibition
toxicity (side effects, weight loss) [7]: without major toxicity

Source: patent US12331040B2 (Karyopharm Therapeutics Inc., priority 2013, dated 2025)
